{"source": "patent US6451973B1", "about": "“Anilinopeptide derivatives” (Novatis AG, priority 1996, dated 2002)"}
{"smiles": "CC[C@H](C)[C@H](NC(=O)OC)C(=O)NN(Cc1ccc(N2CCCC2)cc1)C[C@H](O)[C@H](Cc1ccccc1)NC(=O)[C@@H](NC(=O)OC)C(C)(C)C", "note": "[Example 9, 1-[p-(Pyrrolidin-1-yl)phenyl]-4(S)-hydroxy-2-[N-(N-methoxycarbonyl-(L)-isoleucyl)amino]-5(S)-[N-(N-methoxycarbonyl-(L)-tert-leucyl)amino]-6-phenyl-2-azahexane]", "values": [{"measurement": "melting point", "value": "158 to 161", "unit": "°C"}]}
{"smiles": "COC(=O)N[C@H](C(=O)N[C@@H](Cc1ccccc1)[C@@H](O)CN(Cc1ccc(N2CCCC2)cc1)NC(=O)[C@@H](NC(=O)OC)C(C)(C)C)C(C)C", "note": "[Example 11, 1-[p-(Pyrrolidin-1-yl)phenyl]-4(S)-hydroxy-2-[N-(N-methoxycarbonyl-(L)-tert-leucyl)amino]-5(S)-[N-(N-methoxycarbonyl-(L)-valyl)amino]-6-phenyl-2-azahexane]", "values": [{"measurement": "melting point", "value": "118 to 121 °C (dec.)"}]}
